Laboratory results published in patent publication US8952024B2, “Herbicidal pyrimidone derivatives” (E I du Pont de Nemours and Company, priority 2009, dated 2015).

Tests used:
Format in all cases: in vivo
[1] = test system: large crabgrass (Digitaria sanguinalis); assay: Test A pre-/postemergence plant response
Method in brief: (§1)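 Formulated test chemicals (non-phytotoxic solvent, surfactant) were sprayed onto soil right after planting and simultaneously onto young plants at one to two leaves, 2 to 10 cm tall. Plants stayed in the greenhouse about ten days; injury was then visually scored against untreated controls, from 0 (no effect) to 100 (complete control).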

[2] = test system: giant foxtail (Setaria faberii); assay: Test A pre-/postemergence plant response
Method in brief: as §1

[3] = test system: morningglory (Ipomoea spp.); assay: Test A pre-/postemergence plant response
Method in brief: as §1

[4] = test system: pigweed (Amaranthus retroflexus); assay: Test A pre-/postemergence plant response
Method in brief: as §1

[5] = test system: velvetleaf (Abutilon theophrasti); assay: Test A pre-/postemergence plant response
Method in brief: as §1

[6] = test system: wheat (Triticum aestivum); assay: Test A pre-/postemergence plant response
Method in brief: as §1

corn (Zea mays) = assay: Test A pre-/postemergence plant response
Method in brief: as §1

[7] = test system: barnyardgrass (Echinochloa crus-galli); assay: Test A pre-/postemergence plant response
Method in brief: as §1

[8] = test system: windgrass (Apera spica-venti); assay: Test B postemergence plant response; settings: for Windgrass plant response rating (0 to 100 scale): 62 g ai/ha, postemergence, 0 is no effect, 100 is complete control, 13 to 15 days; for Plant response rating, Windgrass: Postemergence, 125 g ai/ha, scale 0 to 100 (0 no effect, 100 complete control)
Method in brief: (§2)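 Plants at the 1- to 4-leaf stage (2 to 18 cm tall), grown in pots of peat moss/vermiculite medium with wetting agent and starter nutrients, received postemergence applications of test chemicals. After 13 to 15 days in a greenhouse, injury was rated visually against untreated controls on a 0 (no effect) to 100 (complete control) scale.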

[9] = test system: canarygrass (Phalaris minor); assay: Test B postemergence plant response; settings: for Canarygrass plant response rating (0 to 100 scale): 62 g ai/ha, 0 is no effect, 13 to 15 days
Method in brief: as §2

[10] = test system: winter barley (Hordeum vulgare); assay: Test B postemergence plant response; settings: for Barley plant response rating (0 to 100 scale): 62 g ai/ha, 0 is no effect, 13 to 15 days
Method in brief: as §2

[11] = test system: chickweed (Stellaria media); assay: Test B postemergence plant response; settings: for Chickweed plant response rating (0 to 100 scale): 62 g ai/ha, 0 is no effect, 13 to 15 days
Method in brief: as §2

[12] = Postemergence, 125 g ai/ha, 0 to 100 scale where 0 is no effect and 100 is complete control
[13] = Postemergence, 500 g ai/ha, 0 to 100 scale, 0 = no effect, 100 = complete control, approx. ten days
[14] = Preemergence, 125 g ai/ha, 0 to 100 scale, 0 = no effect, 100 = complete control
[15] = Preemergence, 500 g ai/ha, visual injury, 0 to 100 scale (0 no effect, 100 complete control), approx. ten days
[16] = 31 g ai/ha, postemergence, scale 0 to 100, 0 is no effect, 100 is complete control
[17] = postemergence, 100 is complete control
[18] = Postemergence, 125 g ai/ha, scale 0 to 100 (0 no effect, 100 complete control)
[19] = Postemergence, 250 g ai/ha, scale 0 to 100 (0 no effect, 100 complete control)

COCCn1c(-c2cc(F)cc(F)c2)ncc(C(=O)C2=C(O)CCCC2=O)c1=O [Compound 119]
5: Plant response rating, Canarygrass [9, 16] | Canarygrass plant response rating (0 to 100 scale) [9, 17] | Plant response rating, Barley [10, 18] | Plant response rating, Barley [10, 19]
70: Plant response rating, Foxtail, Giant [2, 12] | Plant response rating, Corn (corn (Zea mays); [13]) | Plant response rating, Barnyardgrass [7, 14] | Plant response rating, Chickweed [11, 16]
85: Windgrass plant response rating (0 to 100 scale) [8]
0: Plant response rating, Corn (corn (Zea mays); [12]) | Plant response rating, Barley [10, 16] | Barley plant response rating (0 to 100 scale) [10, 17]
20: Plant response rating, Wheat [6, 14] | Plant response rating, Corn (corn (Zea mays); [14])
30: Plant response rating, Corn (corn (Zea mays); [15]) | Plant response rating, Canarygrass [9, 18] | Plant response rating, Canarygrass [9, 19]
90: Plant response rating, Crabgrass, Large [1, 13] | Plant response rating, Foxtail, Giant [2, 13] | Plant response rating, Foxtail, Giant [2, 14] | Plant response rating, Morningglory [3, 12] | Plant response rating, Morningglory [3, 15] | Plant response rating, Velvetleaf [5, 14] | Plant response rating, Barnyardgrass [7, 13]
50: Plant response rating, Wheat [6, 12]
100: Plant response rating, Crabgrass, Large [1, 14] | Plant response rating, Crabgrass, Large [1, 15] | Plant response rating, Foxtail, Giant [2, 15] | Plant response rating, Morningglory [3, 13] | Plant response rating, Pigweed [4, 12] | Plant response rating, Pigweed [4, 13] | Plant response rating, Pigweed [4, 14] | Plant response rating, Pigweed [4, 15] | Plant response rating, Velvetleaf [5, 12] | Plant response rating, Velvetleaf [5, 13] | Plant response rating, Velvetleaf [5, 15] | Plant response rating, Barnyardgrass [7, 15] | Plant response rating, Windgrass [8] | Plant response rating, Chickweed [11, 18] | Plant response rating, Chickweed [11, 19]
80: Plant response rating, Crabgrass, Large [1, 12] | Plant response rating, Barnyardgrass [7, 12] | Chickweed plant response rating (0 to 100 scale) [11, 17]
60: Plant response rating, Morningglory [3, 14] | Plant response rating, Wheat [6, 13] | Plant response rating, Wheat [6, 15]

COCCCn1c(-c2cc(F)cc(F)c2)ncc(C(=O)C2=C(O)CCCC2=O)c1=O [Compound 120]
100: Plant response rating, Crabgrass, Large [1, 13] | Plant response rating, Crabgrass, Large [1, 14] | Plant response rating, Crabgrass, Large [1, 15] | Plant response rating, Foxtail, Giant [2, 15] | Plant response rating, Morningglory [3, 12] | Plant response rating, Morningglory [3, 13] | Plant response rating, Pigweed [4, 13] | Plant response rating, Pigweed [4, 14] | Plant response rating, Pigweed [4, 15] | Plant response rating, Velvetleaf [5, 12] | Plant response rating, Velvetleaf [5, 13] | Plant response rating, Velvetleaf [5, 15] | Plant response rating, Barnyardgrass [7, 15] | Plant response rating, Chickweed [11, 19]
50: Plant response rating, Corn (corn (Zea mays); [13])
80: Plant response rating, Foxtail, Giant [2, 12] | Plant response rating, Velvetleaf [5, 14] | Windgrass plant response rating (0 to 100 scale) [8]
55: Plant response rating, Canarygrass [9, 18] | Plant response rating, Canarygrass [9, 19]
5: Barley plant response rating (0 to 100 scale) [10, 17] | Plant response rating, Barley [10, 18] | Plant response rating, Barley [10, 19]
85: Plant response rating, Chickweed [11, 18]
30: Plant response rating, Morningglory [3, 14] | Plant response rating, Corn (corn (Zea mays); [15]) | Canarygrass plant response rating (0 to 100 scale) [9, 17]
90: Plant response rating, Crabgrass, Large [1, 12] | Plant response rating, Foxtail, Giant [2, 13] | Plant response rating, Foxtail, Giant [2, 14] | Plant response rating, Morningglory [3, 15] | Plant response rating, Pigweed [4, 12] | Plant response rating, Barnyardgrass [7, 12] | Plant response rating, Barnyardgrass [7, 13] | Plant response rating, Windgrass [8]
75: Chickweed plant response rating (0 to 100 scale) [11, 17]
10: Plant response rating, Corn (corn (Zea mays); [12])
20: Plant response rating, Wheat [6, 12] | Plant response rating, Corn (corn (Zea mays); [14])
60: Plant response rating, Chickweed [11, 16]
70: Plant response rating, Wheat [6, 13] | Plant response rating, Wheat [6, 15] | Plant response rating, Barnyardgrass [7, 14]
0: Plant response rating, Wheat [6, 14] | Plant response rating, Canarygrass [9, 16]
